# US9957271B2, “Substituted bicyclic aza-heterocycles and analogues as sirtuin modulators” (GlaxoSmithKline, LLC, priority 2012, dated 2018)
# Legend:
# SIRT1 [1] = target: T1, SIRT1 (Homo sapiens, UniProt Q96EB6); experiment: TAMRA based mass spectrometry assay of SIRT1 activity; assay type: biochemical; conditions: TAMRA peptide substrate; for TAMRA EC1.5 (μM): concentration of test compound giving 150% activation of SIRT1; for Emax: percent maximum fold activation of SIRT1, read-out: TAMRA % Fold Act
# T1 sequence (Q96EB6 1-747): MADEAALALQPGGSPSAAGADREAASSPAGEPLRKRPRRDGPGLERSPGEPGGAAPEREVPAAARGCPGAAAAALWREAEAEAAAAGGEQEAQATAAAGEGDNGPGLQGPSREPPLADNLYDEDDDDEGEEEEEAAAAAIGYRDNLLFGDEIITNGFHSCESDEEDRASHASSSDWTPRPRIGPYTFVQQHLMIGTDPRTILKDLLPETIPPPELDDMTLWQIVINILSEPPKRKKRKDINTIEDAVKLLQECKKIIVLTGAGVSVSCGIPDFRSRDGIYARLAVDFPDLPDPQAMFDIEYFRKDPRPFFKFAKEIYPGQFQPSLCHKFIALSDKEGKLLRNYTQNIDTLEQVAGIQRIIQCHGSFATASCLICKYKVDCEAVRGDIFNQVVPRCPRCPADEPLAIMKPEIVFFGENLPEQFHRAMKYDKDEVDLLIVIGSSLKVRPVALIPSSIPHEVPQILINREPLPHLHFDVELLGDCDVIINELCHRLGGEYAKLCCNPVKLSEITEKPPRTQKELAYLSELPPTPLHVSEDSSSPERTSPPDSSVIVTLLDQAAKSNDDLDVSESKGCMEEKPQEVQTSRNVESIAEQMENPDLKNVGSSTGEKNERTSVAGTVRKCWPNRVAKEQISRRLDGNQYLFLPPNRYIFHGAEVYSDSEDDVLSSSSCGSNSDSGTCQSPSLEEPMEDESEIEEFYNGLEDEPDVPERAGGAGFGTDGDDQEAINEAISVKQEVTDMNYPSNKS
# Method in brief: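 Recombinant N-terminal His-tagged human SIRT1 (10 nM, E. coli) incubated 25 min at 25 °C with 0.5 μM 5TMR-labelled p53-derived acetyl-peptide and 120 μM βNAD+ in Tris-acetate pH 8 buffer with DTT and 0.05% BSA, compound at varying concentrations. Stopped with formic acid; deacetylated peptide or OAADPR measured by mass spectrometry relative to DMSO controls.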
# SIRT1 [2] = target: T1, SIRT1; experiment: Trp mass spectrometry assay of SIRT1 activity; assay type: biochemical; conditions: Trp peptide substrate; for Trp EC1.5 (μM): concentration of test compound giving 150% activation of SIRT1; for Emax: percent maximum fold activation of SIRT1, read-out: Trp % Fold Act
# Method in brief: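 His-tagged SIRT1 expressed in E. coli BL21(DE3), 10 nM, incubated 25 min at 25° C. with 0.5 μM Ac-RHKK(Ac)W-NH2 peptide and 120 μM βNAD+ in 50 mM HEPES pH 7.5, […], 1 mM DTT, 0.05% BSA; formic acid stop. OAADPR or deacetylated peptide measured by mass spectrometry; EC1.5 and percent maximum activation versus DMSO control.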
TAMRA EC1.5 (μM) (SIRT1 [1]),Emax (SIRT1 [1]) [%],Trp EC1.5 (μM) (SIRT1 [2]),Emax (SIRT1 [2]) [%],Compound
B (EC1.5 1-25 μM),< 350,B (EC1.5 1-25 μM),< 350,O=C(Nc1nc(CN2CCOCC2)cs1)c1cnc2ccc(-c3ccc(F)c(F)c3)nn12 [Compound 44]
A (EC1.5<1 μM),≥ 350,C (EC1.5>25 μM),< 350,O=C(Nc1cccc(CN2CCOCC2)n1)c1cnc2ccc(-c3cccc(F)c3F)nn12 [Compound 47]
A (EC1.5<1 μM),≥ 350,A (EC1.5<1 μM),≥ 350,O=C(Nc1ccnc(N2CCC2)c1)c1cnc2ccc(-c3ccccc3C(F)(F)F)nn12 [Compound 50]
A (EC1.5<1 μM),≥ 350,B (EC1.5 1-25 μM),≥ 350,O=C(Nc1cccc(N2CCC2)n1)c1cnc2ccc(-c3ccccc3C(F)F)nn12 [Compound 51]
B (EC1.5 1-25 μM),< 350,B (EC1.5 1-25 μM),< 350,Cc1noc(C)c1-c1ccc2ncc(C(=O)Nc3cccc(N4CCOCC4)n3)n2n1 [Compound 53]
B (EC1.5 1-25 μM),< 350,B (EC1.5 1-25 μM),< 350,Cn1cc(-c2ccc3ncc(C(=O)Nc4cccc(N5CCOCC5)n4)n3n2)cn1 [Compound 56]
B (EC1.5 1-25 μM),< 350,C (EC1.5>25 μM),< 350,Cc1ncccc1-c1ccc2ncc(C(=O)Nc3ccnc(N4CCCC4)c3)n2n1 [Compound 59]
B (EC1.5 1-25 μM),< 350,C (EC1.5>25 μM),< 350,O=C(Nc1ccnc(N2CCC2)c1)c1cnc2ccc(-c3cncc(C(F)F)c3)nn12 [Compound 62]
B (EC1.5 1-25 μM),< 350,B (EC1.5 1-25 μM),< 350,O=C(Nc1ccnc(N2CCOCC2)c1)c1nnc2ccc(-c3ccccc3C(F)F)nn12 [Compound 68]
A (EC1.5<1 μM),≥ 350,B (EC1.5 1-25 μM),≥ 350,Cc1nc2ccc(-c3ccccc3C(F)(F)F)nn2c1C(=O)Nc1cccc(N2CCC2)n1 [Compound 69]
A (EC1.5<1 μM),≥ 350,A (EC1.5<1 μM),≥ 350,Cc1nc2ccc(-c3ccccc3C(F)(F)F)nn2c1C(=O)Nc1cccc(N2CCOCC2)n1 [Compound 71]
A (EC1.5<1 μM),≥ 350,A (EC1.5<1 μM),≥ 350,O=C(Nc1ccnc(OCC(O)CO)n1)c1cnc2ccc(-c3ccccc3C(F)(F)F)nn12 (centres unmarked) [Compound 74]
B (EC1.5 1-25 μM),≥ 350,B (EC1.5 1-25 μM),< 350,O=C(Nc1ccncc1)c1cnc2ccc(-c3ccccc3C(F)(F)F)nn12 [Compound 77]
A (EC1.5<1 μM),≥ 350,A (EC1.5<1 μM),≥ 350,Cc1cccc(NC(=O)c2cnc3ccc(-c4ccccc4C(F)(F)F)nn23)n1 [Compound 78]
B (EC1.5 1-25 μM),≥ 350,C (EC1.5>25 μM),< 350,O=C(Nc1ccncn1)c1cnc2ccc(-c3ccccc3C(F)(F)F)nn12 [Compound 80]
A (EC1.5<1 μM),≥ 350,A (EC1.5<1 μM),≥ 350,O=C(Nc1cnc2ccc(-c3ccccc3C(F)(F)F)nn12)c1cccc(OCC(O)CO)n1 (centres unmarked) [Compound 83]
B (EC1.5 1-25 μM),≥ 350,B (EC1.5 1-25 μM),≥ 350,O=C(Nc1ncccn1)c1cnc2ccc(-c3ccccc3C(F)(F)F)nn12 [Compound 84]
C (EC1.5>25 μM),< 350,C (EC1.5>25 μM),< 350,O=C(Nc1cnc2ccc(-c3ccccc3C(F)(F)F)nn12)c1cccnc1 [Compound 86]

TAMRA EC1.5 (μM) (SIRT1 [1]),Emax (SIRT1 [1]) [%],Trp EC1.5 (μM) (SIRT1 [2]),Emax (SIRT1 [2]) [%],Compound
B (EC1.5 1-25 μM),≥ 350,C (EC1.5>25 μM),< 350,Cn1cnc(C(=O)Nc2cnc3ccc(-c4ccccc4C(F)(F)F)nn23)c1 [Compound 92]
C (EC1.5>25 μM),< 350,C (EC1.5>25 μM),< 350,Cn1nccc1C(=O)Nc1cnc2ccc(-c3ccccc3C(F)(F)F)nn12 [Compound 93]
A (EC1.5<1 μM),≥ 350,A (EC1.5<1 μM),< 350,O=C(Nc1cccc(N2CCOCC2)n1)c1cnc2ccc(-c3ccccc3Cl)nn12 [Compound 95]
B (EC1.5 1-25 μM),≥ 350,B (EC1.5 1-25 μM),≥ 350,Cc1ccc(NC(=O)c2cnc3ccc(-c4ccccc4C(F)(F)F)nn23)cn1 [Compound 98]
A (EC1.5<1 μM),≥ 350,B (EC1.5 1-25 μM),≥ 350,Cc1cc(C)nc(NC(=O)c2cnc3ccc(-c4ccccc4C(F)(F)F)nn23)c1 [Compound 101]
A (EC1.5<1 μM),≥ 350,B (EC1.5 1-25 μM),≥ 350,Cc1cc(NC(=O)c2cnc3ccc(-c4ccccc4C(F)(F)F)nn23)ccn1 [Compound 102]
A (EC1.5<1 μM),≥ 350,B (EC1.5 1-25 μM),< 350,CN(C)c1cccc(NC(=O)c2cnc3ccc(-c4ccccc4C(F)(F)F)nn23)n1 [Compound 104]
B (EC1.5 1-25 μM),≥ 350,B (EC1.5 1-25 μM),< 350,O=C(Nc1cncc(F)c1)c1cnc2ccc(-c3ccccc3C(F)(F)F)nn12 [Compound 107]
A (EC1.5<1 μM),≥ 350,B (EC1.5 1-25 μM),< 350,O=C(Nc1ccc(F)cn1)c1cnc2ccc(-c3ccccc3C(F)(F)F)nn12 [Compound 110]
B (EC1.5 1-25 μM),≥ 350,B (EC1.5 1-25 μM),< 350,Cn1ccc(NC(=O)c2cnc3ccc(-c4ccccc4C(F)(F)F)nn23)n1 [Compound 112]
B (EC1.5 1-25 μM),< 350,B (EC1.5 1-25 μM),< 350,Cc1ncccc1NC(=O)c1cnc2ccc(-c3ccccc3C(F)(F)F)nn12 [Compound 113]
A (EC1.5<1 μM),≥ 350,C (EC1.5>25 μM),< 350,O=C(Nc1cccc(CN2CCOCC2)n1)c1cnc2ccc(-c3ccccc3Cl)nn12 [Compound 116]
B (EC1.5 1-25 μM),< 350,C (EC1.5>25 μM),< 350,O=C(Nc1cnccn1)c1cnc2ccc(-c3ccccc3Cl)nn12 [Compound 119]
A (EC1.5<1 μM),≥ 350,B (EC1.5 1-25 μM),≥ 350,O=C(Nc1cnc2ccc(-c3ccccc3C(F)(F)F)nn12)c1cncc(N2CCOCC2)n1 [Compound 120]
A (EC1.5<1 μM),≥ 350,B (EC1.5 1-25 μM),< 350,O=C(Nc1cnc2ccc(-c3ccccc3C(F)(F)F)nn12)c1nccs1 [Compound 122]
B (EC1.5 1-25 μM),< 350,B (EC1.5 1-25 μM),< 350,Cc1cc(C)c(NC(=O)c2cnc3ccc(-c4ccccc4C(F)(F)F)nn23)cn1 [Compound 125]
A (EC1.5<1 μM),< 350,B (EC1.5 1-25 μM),< 350,O=C(Nc1cccc(N2CCOCC2)n1)c1cnc2ccc(-c3ccc(F)c(F)c3F)nn12 [Compound 126]
